The values below come from patent US20050170041A1, “Chewing gum compositions comprising monatin and methods for making same” (Cargill, Inc., priority 2003, published 2005).

Data set [1] in a line: Quantitative synergy of monatin in blends with other sweeteners. It counts as in vivo.
A short description of data set [2]: Sensory evaluation of sweeteners in iced tea. It counts as in vivo. As to conditions: 200 ml serving, aspartame 450 ppm, monatin 40 ppm, panel n=6. The method, then: Monatin formulations, including R,R monatin or R,R monatin/erythritol combinations, were assessed relative to other known sweeteners (aspartame and sucralose) in iced tea. The key sensory parameters assessed included sweetness quality, aftertaste, bitter taste and its aftertaste. Qualitative evaluation has been carried out.
An ice tea formulation was developed to evaluate sweetener performance (Table 7).
Sweeteners were added to tea at the following concentrations:
The evaluation of ice tea drinks was carried out by a panel (n=6) of experienced sensory evaluators.

Data set [3] in a line: Stability of monatin at pH 3 with increasing temperatures. As to conditions: synthetic monatin. It counts as physicochemical. The method, then: A sample of synthetic monatin was subjected to pH 3 at temperatures of 25° C., 50° C. and 100° C. At room temperature and pH 3, a 14% loss in monatin was observed over a period of 48 hours. This loss was attributed to lactone formation. At 50° C. and pH 3, a 23% loss in monatin was observed over a period of 48 hours. This loss was attributed to lactone formation and the buildup of an unknown compound after about 15.5 minutes. […] The major detectable component was an unknown at 15.5 minutes.

For `NC(CC(O)(Cc1c[nH]c2ccccc12)C(=O)O)C(=O)O` (stereo not drawn) [Monatin, 2-hydroxy-2-(indol-3-ylmethyl)-4-aminoglutaric acid], the “quantitative synergy with cyclamates” value in data set [1] (blend with cyclamates) is “quantitatively synergistic”. Moreover, the “quantitative synergy with other sweeteners” value in data set [1] (with aspartame, saccharin, acesulfame-K, sucralose, or carbohydrate sweeteners) is given as “no significant quantitative synergy”. For the same compound, in data set [2], the “Comments: flavor enhancement (lemon flavor notes)” value is given as “enhanced the lemon flavor notes”. The loss in monatin in data set [3] (50° C., pH 3, 48 hours) was 23%; in data set [3] (100° C., pH 3, after 24 hours) it was “nearly all monatin was lost”; in data set [3] (room temperature (25° C.), pH 3, 48 hours), 14%.
